Experimental data: US20110212047A1, “Polymer Therapy for the Treatment of Chronic Microvascular Diseases” (Synth Rx, Inc., priority 2007, published 2011)

Tested on: bilateral neovascular AMD with occult choroidal neovascularization
Test: Treatment of a patient with bilateral neovascular AMD with occult choroidal neovascularization
Type: in vivo, human
Conditions: after intravitreal injection to both eyes

Substance: pegaptanib
- vision, left eye (20/80 before): 20/100
- vision, right eye (CF at six feet before): CF at six feet
